Assays:
[1] = tested on: cramping induced by phenylbenzoquinone; assay: antalgic activity: percentage inhibition of cramping induced by phenylbenzoquinone, mice i.p.; format: in vivo; conditions: dose one tenth of LD-50 mice i.p., over 5 minutes, phenylbenzoquinone 0.02% i.p.
Description: The antalgic activity of the compounds of formula I was determined by measuring the cramping induced by phenylbenzoquinone, as described by Siegmund et al, Proc. Soc. Exp. Biol. Med. ([…]) 95, 729. A painful reaction, characterized by twisting movements and elongation of the abdomen, with scraping of the rear paws, was introduced by the intraperitoneal administration of a 0.02% w/v solution of phenyl-benzoquinone in […] at a rate of 0.5 ml/20 g body weight. The activity was measured by the percentage inhibition in the number of painful symptons over 5 minutes.

[2] = LD-50 mice i.p. (acute toxicity); conditions: mouse, in vivo, ip
[3] = LD50 mice per os (acute toxicity); conditions: mouse, in vivo, po
LD0 rat (acute toxicity) = format: in vivo
[4] = kidney troubles / tolerance; format: in vivo; conditions: footnote (a), in connection with ED50 mice per os
[5] = clinical double blind test as an antalgic agent; format: in vivo; conditions: 41 patients, 400 mg per day, tablets, 20 days
Description: The compound of Example 1 has been tested clinically as an antalgic agent on 41 patients. A double blind test was carried out, using placebos and a dose of 400 mg per day of the active compound, administered as tablets.

antalgic activity = assay: ED50 mice per os antalgic activity; format: in vivo; conditions: Mus musculus, po

Row | SMILES | Percentage of diminution of cramping, Tested compound [1] [%] | LD50 [2] [mg/kg] | further results
1 | COc1ccc(C(=O)c2cccc(OC(C)(C)C(=O)O)c2)cc1 [Example 2] | 97 | 300 | –
2 | CC(C)(Oc1cccc(C(=O)c2cccc(C(F)(F)F)c2)c1)C(=O)O [Example 3] | 43 | 300 | –
3 | CC(Oc1cccc(C(=O)c2ccc(Cl)cc2Cl)c1)C(=O)O (stereo not drawn) [Example 8] | 100 | 800 | –
4 | CC(Oc1cccc(C(=O)c2ccccc2)c1)C(=O)O (stereo not drawn) [Example 6] | 100 | 770 | –
5 | Cc1ccc(C(=O)c2cccc(OC(C)(C)C(=O)O)c2)c(C)c1 [Example 10] | 69 | 600 | –
6 | Cc1ccccc1C(=O)c1cccc(OC(C)(C)C(=O)O)c1 [Example 11] | 70 | 600 | –
7 | Cc1ccc(C(=O)c2cccc(OCC(=O)O)c2)cc1 [Example 12] | 92 | 450 | –
8 | O=C(O)COc1cccc(C(=O)c2ccc(Cl)cc2Cl)c1 [Example 9] | 94 | 350 | –
9 | CC(C)(Oc1cccc(C(=O)c2ccccc2)c1)C(=O)O [Example 1, 2-(3-benzoyl)-phenoxy-2-methylpropionic acid] | 95 | 350 | LD50 [3]: 350 mg/kg; KD0 rat i.p. (LD0 rat (acute toxicity); i.p.): 540 mg/kg; LD0 rat per os (LD0 rat (acute toxicity); per os): higher than 1600 mg/kg; kidney troubles [4]: without kidney troubles; tolerance of the product ([5]; double blind): excellent; activity good, cases ([5]; double blind, patients who had received the active compound): 80%; relief of symptoms ([5]; patients who had received the active compound): the symptoms had been relieved; ED50 (antalgic activity): 35 mg/kg
10 | Cc1ccc(C(=O)c2cccc(OC(C)(C)C(=O)O)c2)cc1 [Example 4] | 66 | 400 | –
11 | Cc1ccc(C(=O)c2cccc(OC(C)C(=O)O)c2)cc1 (stereo not drawn) [Example 13] | 98 | 700 | –
12 | O=C(OCC(O)CO)c1ccccc1Nc1ccnc2cc(Cl)ccc12 (stereo not drawn) [Glaphenine, 2,3-dihdroxypropyl N-(7-chloro-4-quinolyl)-anthranilate, reference compound] | – | – | kidney troubles [4]: induces kidney troubles; ED50 (antalgic activity): 25 mg/kg
13 | Cc1ccc(C(=O)c2cccc(OC(C)(C)C(=O)O)c2)cc1C [Example 5] | 100 | 450 | –
14 | CC(Oc1cccc(C(=O)c2cccc(C(F)(F)F)c2)c1)C(=O)O (stereo not drawn) [Example 7] | 61 | 350 | –

Reference: US4242358A, “Method of treatment of algiae” (Societe de Recherches Industrielles (Sori), priority 1979, dated 1980)
